The structures appear in SMILES notation. Counter-ions that a name gives are not always drawn.

Experiment [1] relates to HBV mutant V173L triple (rt V173L, L180M, M204V). In words: Antiviral testing in HepG2 cells transduced with recombinant HBV/baculovirus, V173L triple mutant. It counts as cell-based, hepatitis B virus. The following applies: area under dose-response curve, value relative to WT = 1.0. As for the experimental part: (§1) The sensitivity/resistance profile of HBV mutants to adefovir, tenofovir and other antiviral agents was examined in vitro using recombinant HBV/baculovirus. The procedure for analysing the resistance profile is outlined in the following Examples 7-14.
(§2) Sf21 insect cells were maintained in supplemented Grace's insect medium further supplemented with 10% v/v heat-inactivated fetal bovine serum (Gibco BRL, Gaithersburg, Md.) in humidified incubator at 28 C with CO2. HepG2 cells were maintained in minimal essential medium supplemented with 10% v/v heat-inactivated fetal bovine serum (MEM-FBS). HepG2 cells were grown in humidified 37° C. incubators at 5% v/v CO2.
(§3) The recombinant HBV/baculovirus system used for antiviral testing has been previously described (Delaney et al., Antimicrob Agents Chernother 45(6): 1705-[…], 2001). In brief, the recombinant transfer vector was created by excising a fragment containing the 1.3× HBV genome construct and cloning it into the multiple cloning region of a baculovirus vector pBlueBac4.5 (Invitrogen, Carlsbad, Calif.). Point mutations were created by site directed mutagenesis using the commercial kits according to the manufacturers specifications (QuikChange, Stratagene). The nucleotide sequence of the plasmid and the point mutations generated by site directed mutagenesis were confirmed by sequencing using the ABI Prism Big Dye Terminator Cycle Sequencing Ready Reaction Kit according to the manufacturer's specifications (Perkin Elmer, Cetus Norwalk, Conn.). The panel of HBV mutants was generated from a wild type (WT) genotype D HBV isolate by site-directed mutagenesis. Mutants encoded either WT HBV polymerase or polymerase with the amino acid substitutions listed in Table 8 in an HBeAg negative (precore [PC] G1896A mutant) background. Other HBV mutants can be made and tested for antiviral sensitivity in a similar manner.
(§4) Purified recombinant transfer vector and linear AcMNPV baculovirus DNA were co-transfected into Sf21 cells using the BacNBlue transfection kit from Invitrogen (Carlsbad, Calif.); recombinant viruses were isolated by plaque assay according to the manufacturer's instructions. A series of recombinant viruses were amplified from isolated plaques by infecting 100-mm dishes of Sf21 cells. Viral DNA was extracted from amplified viruses using standard procedures. Purified viral DNA was digested with restriction enzymes and then fractionated by electrophoresis in a 1% […] agarose gel. Southern blotting was performed to determine which virus isolates contained the intact 1.3 HBV construct. A Boehringer Mannheim Random Prime DNA Labeling kit (Indianapolis, Ind.) was used to generate [P^32]-radiolabeled probes. A full-length double-stranded HBV genome was used as a template for all radiolabeled probes. Viral DNA sequence was confirmed by PCR amplification and sequencing of the polymerase catalytic region.
(§5) Baculoviruses were amplified by infecting suspension cultures of Sf21 cells in log phase at a multiplicity of infection (moi) of 0.5 pfu/cell. […] Virions were concentrated from infected Sf21 medium by centrifugation at 80,000×g and purified through a 20-60% w/v sucrose gradient. Purified virus was titrated in quadruplicate in Sf21 cells by end-point dilution. An aliquot of each high titer stock was used for DNA extraction. The polymerase gene was amplified and sequenced to confirm the presence of the site-directed mutagenesis.
(§6) HepG2 cells were seeded at approximately 20-40% confluency and then were grown for 16-24 hours before infection. On the day of infection, triplicate plates of cells were trypsinized, and viable cell number was determined with a hemocytometer using Trypan blue exclusion. Average cell counts were calculated and used to determine the volume of high-titer viral stock necessary to infect cells at the indicated moi. HepG2 cells were washed one time with serum-free MEM to remove traces of serum. […]

Experiment [2] concerns HBV mutant L180M quad (rt L180M, T184G, S202I, M204V). Put plainly: Antiviral testing in HepG2 cells transduced with recombinant HBV/baculovirus, L180M quad mutant. The format is cell-based, hepatitis B virus. As to conditions: area under dose-response curve, value relative to WT = 1.0. The protocol: as §1, §2, §3, §4, §5, §6
Experiment [3] has as its system HBV mutant L180M double (rt L180M, M204V). Put plainly: Antiviral testing in HepG2 cells transduced with recombinant HBV/baculovirus, L180M double mutant. The format is cell-based, hepatitis B virus. The following applies: area under dose-response curve, value relative to WT = 1.0. The protocol:
as §1, §2, §3, §4, §5, §6

A further experiment relates to HBV. The following applies: 30 mg daily dose, over 12 weeks, phase II studies; cited from earlier work.
Experiment [4] deals with WT HBV (genotype D isolate, precore G1896A background). In words: Antiviral testing in HepG2 cells transduced with recombinant HBV/baculovirus, wild type. The format is cell-based, hepatitis B virus. As to conditions: none (WT) polymerase; area under dose-response curve; values set to 1.0 (relative to WT). As for the experimental part:
as §1, §2, §3, §4, §5, §6

`CC(C)(C)C(=O)OCOP(=O)(COCCn1cnc2c(N)ncnc21)OCOC(=O)C(C)(C)C` [ADV, adefovir dipivoxil]: the AUC in experiment [1] worked out at 0.4; in experiment [2], 1.3; in experiment [3], 1.7; in experiment [4], 1.0. In addition, in the experiment with HBV, the “mean decrease in viremia” value is reported as 4 log10.
In the case of `C=C1[C@H](CO)[C@@H](O)C[C@@H]1n1cnc2c(=O)[nH]c(N)nc21` [ETV, entecavir], the AUC in experiment [1] is 47.5; in experiment [2] it was 242.7; in experiment [3], 215.9; in experiment [4] it was 1.0.
For the molecule `Nc1nc(=O)n([C@@H]2CS[C@H](CO)O2)cc1F` [FTC, (−)-β-L-2′-3′-dideoxy-5-fluoro-3′-thiacydidine], the AUC in experiment [1] amounted to 1200.0; in experiment [2], 464.4; in experiment [3], 761.4; in experiment [4] it was 1.0.
For `Cc1cn([C@@H]2C[C@@H](O)[C@H](CO)O2)c(=O)[nH]c1=O` [L-dT], in that order: 12.7, 21.1, 13.7 and 1.0.
For `Nc1ccn([C@@H]2CS[C@H](CO)O2)c(=O)n1` [LMV, (−)-β-2′-deoxy-3′-thiacytidine], in that order: 625.3, 603.4, 363.1 and 1.0.
With `CC(C)OC(=O)OCOP(=O)(CO[C@H](C)Cn1cnc2c(N)ncnc21)OCOC(=O)OC(C)C` [TFV, tenofovir disoproxil fumarate], the AUC in experiment [1] is recorded as 2.3; in experiment [2] it was 4.2; in experiment [3] it was 2.1; in experiment [4], 1.0.

(Values after patent publication US8367317B2, “Variants of hepatitis B virus with resistance to anti-viral nucleoside agents and applications thereof” (Melbourne Health; St. Vincent's Hospital Melbourne; Austin …, priority 2005, dated 2013).)
